Where two headings read alike, the source gives them in different places.
Tests used:
[1] = molecular target: T1, Src (Homo sapiens, UniProt P12931); assay: Recombinant kinase ELISA assay, Src; assay type: biochemical; settings: recombinant human enzyme; ELISA-based assay, poly(Glu,Tyr 4:1) substrate
T1 construct: Src (2–536; BC011566); 6xHN (N); made in house; host or cells: baculovirus, Sf9 insect cells
Experimental: (§1) Full details for the generation of recombinant human KIT intracellular domain and other protein kinases (including Lyn, platelet derived growth factor receptor β, epidermal growth factor receptor, fibroblast growth factor receptor 1, Src, HCK, PYK, FES, Btk, Bmx, c-Ret, c-Fms, Syk, and c-Met) are provided in the Supplemental Methods (see Supporting Information; Methods S1). Experiments on ABL1, Akt1, protein kinase C-α, insulin-like growth factor receptor 1, and Pim1 were carried out by Proqinase (Germany). All other recombinant protein kinases were performed in-house using an enzyme-linked immunoassay; experimental details are provided in the Supplemental Methods (see Supporting Information; Methods S1).
A 96-well microtitre plate (Immulon 2HB; ThermoLifeScience, Finland) was coated overnight with 0.25 mg/ml poly(Glu,Tyr 4:1), rinsed twice with 250 µl of washing buffer (10 mM phosphate-buffered saline [pH 7.4] and 0.05% Tween 20) and dried for 2 hours at room temperature. […] Reactions were initiated upon introduction of the enzyme and terminated with the addition of one reaction volume (50 μl) of 100 mM EDTA per 5 M urea mix. […] The final reaction product was quantified by spectrophotometry at 450 nm.

[2] = molecular target: T2, Pim1 (Homo sapiens, UniProt P11309); assay: Recombinant kinase screen (Proqinase), Pim1; assay type: biochemical; settings: recombinant human enzyme; single experiment, kinase screen by Proqinase
T2 construct: purchased Proqinase (Germany)
T2 sequence (P11309 whole entry): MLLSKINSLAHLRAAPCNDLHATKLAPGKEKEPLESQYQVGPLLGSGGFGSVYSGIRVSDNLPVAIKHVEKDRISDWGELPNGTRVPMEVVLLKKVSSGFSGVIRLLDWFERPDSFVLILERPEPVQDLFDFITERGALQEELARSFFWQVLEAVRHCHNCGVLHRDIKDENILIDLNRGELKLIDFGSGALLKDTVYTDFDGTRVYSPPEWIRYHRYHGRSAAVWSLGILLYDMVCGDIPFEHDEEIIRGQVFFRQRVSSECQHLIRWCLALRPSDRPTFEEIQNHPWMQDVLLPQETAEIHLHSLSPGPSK
Experimental: as §1

[3] = molecular target: T3, KIT D^814V (murine) (Mus musculus, UniProt P05532, D818V); assay: Ba/F3 cell proliferation (WST-1), KIT D814V; settings: Ba/F3 cells expressing the enzyme, read-out: Cell-based assay IC50, KIT D^814V (murine)
T3 construct: expressed in transfected cells; host or cells: Ba/F3
T3 sequence (P05532 25-975 isoform P05532-2 D814V limits assumed): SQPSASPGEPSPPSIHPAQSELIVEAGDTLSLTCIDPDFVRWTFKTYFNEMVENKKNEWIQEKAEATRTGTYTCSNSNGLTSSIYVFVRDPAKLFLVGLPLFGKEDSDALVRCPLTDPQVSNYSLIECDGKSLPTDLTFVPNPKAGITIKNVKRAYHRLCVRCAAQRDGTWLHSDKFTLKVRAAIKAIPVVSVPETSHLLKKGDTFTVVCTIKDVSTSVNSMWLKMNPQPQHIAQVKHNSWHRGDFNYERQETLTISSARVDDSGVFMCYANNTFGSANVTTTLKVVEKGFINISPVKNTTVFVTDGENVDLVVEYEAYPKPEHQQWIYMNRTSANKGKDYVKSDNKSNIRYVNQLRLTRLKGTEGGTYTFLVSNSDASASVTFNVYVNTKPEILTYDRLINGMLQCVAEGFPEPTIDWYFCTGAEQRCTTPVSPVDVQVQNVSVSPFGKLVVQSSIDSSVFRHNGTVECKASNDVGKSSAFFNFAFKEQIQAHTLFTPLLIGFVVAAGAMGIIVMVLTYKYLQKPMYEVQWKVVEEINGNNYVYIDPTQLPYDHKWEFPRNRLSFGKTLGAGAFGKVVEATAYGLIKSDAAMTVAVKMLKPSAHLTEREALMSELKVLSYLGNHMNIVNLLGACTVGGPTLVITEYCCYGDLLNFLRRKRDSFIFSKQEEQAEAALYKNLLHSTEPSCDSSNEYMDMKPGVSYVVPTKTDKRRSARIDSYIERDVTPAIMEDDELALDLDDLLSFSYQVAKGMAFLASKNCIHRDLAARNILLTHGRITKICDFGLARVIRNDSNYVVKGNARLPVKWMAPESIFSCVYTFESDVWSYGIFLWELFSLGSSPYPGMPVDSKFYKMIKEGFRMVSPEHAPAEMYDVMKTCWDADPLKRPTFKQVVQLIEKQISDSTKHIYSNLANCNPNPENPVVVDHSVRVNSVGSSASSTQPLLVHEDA

[4] = molecular target: Flt3 (Homo sapiens, UniProt P36888); assay: Ba/F3 cell proliferation (WST-1), Flt3; settings: Ba/F3 cells expressing the enzyme, read-out: Cell-based assay IC50, Flt3
Chain of Flt3 (P36888 27-993): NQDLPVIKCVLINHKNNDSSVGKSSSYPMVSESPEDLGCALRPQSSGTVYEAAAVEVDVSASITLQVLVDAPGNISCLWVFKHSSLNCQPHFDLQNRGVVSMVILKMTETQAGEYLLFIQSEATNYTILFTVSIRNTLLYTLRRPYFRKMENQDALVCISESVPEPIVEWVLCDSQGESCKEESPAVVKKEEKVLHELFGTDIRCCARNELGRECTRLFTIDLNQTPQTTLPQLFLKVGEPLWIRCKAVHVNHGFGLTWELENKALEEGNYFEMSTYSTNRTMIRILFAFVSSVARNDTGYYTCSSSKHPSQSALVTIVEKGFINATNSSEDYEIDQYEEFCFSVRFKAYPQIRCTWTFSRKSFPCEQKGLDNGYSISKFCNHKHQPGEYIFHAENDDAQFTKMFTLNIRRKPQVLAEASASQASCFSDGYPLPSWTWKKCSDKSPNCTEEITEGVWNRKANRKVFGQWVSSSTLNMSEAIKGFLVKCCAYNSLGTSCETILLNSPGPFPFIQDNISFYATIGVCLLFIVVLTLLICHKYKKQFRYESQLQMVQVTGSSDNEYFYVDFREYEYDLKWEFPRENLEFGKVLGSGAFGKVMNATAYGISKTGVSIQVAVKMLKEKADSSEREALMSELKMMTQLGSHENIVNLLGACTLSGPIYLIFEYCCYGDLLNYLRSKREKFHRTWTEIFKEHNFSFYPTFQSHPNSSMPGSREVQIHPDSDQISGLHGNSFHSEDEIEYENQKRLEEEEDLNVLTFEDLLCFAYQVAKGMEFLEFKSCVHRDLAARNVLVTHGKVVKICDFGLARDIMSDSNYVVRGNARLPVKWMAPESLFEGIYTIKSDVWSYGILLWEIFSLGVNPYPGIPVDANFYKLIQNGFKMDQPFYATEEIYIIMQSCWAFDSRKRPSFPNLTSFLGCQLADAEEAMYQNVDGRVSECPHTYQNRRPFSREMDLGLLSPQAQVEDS

[5] = molecular target: T4, Alk (Homo sapiens, UniProt Q9UM73); assay: Ba/F3 cell proliferation (WST-1), Alk; settings: Ba/F3 cells expressing the enzyme, read-out: Cell-based assay IC50, Alk
T4 construct: expressed in transfected cells; host or cells: Ba/F3
T4 sequence (Q9UM73 19-1620, species assumed): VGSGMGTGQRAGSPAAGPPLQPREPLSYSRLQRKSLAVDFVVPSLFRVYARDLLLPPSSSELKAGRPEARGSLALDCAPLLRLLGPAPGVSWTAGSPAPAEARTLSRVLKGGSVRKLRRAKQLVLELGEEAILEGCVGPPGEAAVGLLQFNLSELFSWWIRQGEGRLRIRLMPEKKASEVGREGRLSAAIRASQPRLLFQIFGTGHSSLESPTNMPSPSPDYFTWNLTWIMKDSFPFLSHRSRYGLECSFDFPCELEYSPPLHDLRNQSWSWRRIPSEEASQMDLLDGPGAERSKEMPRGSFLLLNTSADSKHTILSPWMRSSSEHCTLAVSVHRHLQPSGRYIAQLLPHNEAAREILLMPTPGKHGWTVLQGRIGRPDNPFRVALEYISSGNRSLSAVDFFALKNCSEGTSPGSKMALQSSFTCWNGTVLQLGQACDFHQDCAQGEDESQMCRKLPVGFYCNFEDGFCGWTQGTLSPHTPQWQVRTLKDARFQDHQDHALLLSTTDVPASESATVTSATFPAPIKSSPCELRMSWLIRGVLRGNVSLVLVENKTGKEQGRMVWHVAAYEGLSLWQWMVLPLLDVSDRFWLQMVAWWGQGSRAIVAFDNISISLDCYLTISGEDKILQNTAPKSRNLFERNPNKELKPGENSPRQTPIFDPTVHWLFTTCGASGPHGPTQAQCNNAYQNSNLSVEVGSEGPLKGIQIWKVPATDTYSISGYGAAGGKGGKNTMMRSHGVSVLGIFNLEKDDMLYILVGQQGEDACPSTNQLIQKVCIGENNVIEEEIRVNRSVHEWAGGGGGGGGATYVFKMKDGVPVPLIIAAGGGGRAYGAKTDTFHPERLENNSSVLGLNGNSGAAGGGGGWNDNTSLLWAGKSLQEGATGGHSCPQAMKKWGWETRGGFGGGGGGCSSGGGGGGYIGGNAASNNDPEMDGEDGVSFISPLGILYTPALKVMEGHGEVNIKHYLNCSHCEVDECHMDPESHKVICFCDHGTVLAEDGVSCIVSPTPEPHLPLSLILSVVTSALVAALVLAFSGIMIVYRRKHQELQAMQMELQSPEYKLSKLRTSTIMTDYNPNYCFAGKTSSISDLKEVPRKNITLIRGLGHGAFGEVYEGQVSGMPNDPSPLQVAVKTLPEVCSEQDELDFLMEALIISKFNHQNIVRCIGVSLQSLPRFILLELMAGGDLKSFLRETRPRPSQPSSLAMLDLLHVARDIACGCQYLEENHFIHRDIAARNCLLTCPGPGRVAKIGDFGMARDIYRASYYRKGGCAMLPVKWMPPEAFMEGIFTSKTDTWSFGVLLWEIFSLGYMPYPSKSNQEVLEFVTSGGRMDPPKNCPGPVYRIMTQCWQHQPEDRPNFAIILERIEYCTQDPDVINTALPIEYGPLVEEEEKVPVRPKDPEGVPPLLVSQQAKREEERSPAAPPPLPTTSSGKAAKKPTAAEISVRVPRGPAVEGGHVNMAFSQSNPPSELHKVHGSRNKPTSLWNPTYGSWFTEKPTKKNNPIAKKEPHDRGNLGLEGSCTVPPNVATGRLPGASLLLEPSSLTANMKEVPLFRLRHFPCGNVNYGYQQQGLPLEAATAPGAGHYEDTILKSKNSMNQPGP

[6] = molecular target: T5, Tyk2 (Homo sapiens, UniProt P29597); assay: Ba/F3 cell proliferation (WST-1), Tyk2; settings: Ba/F3 cells expressing the enzyme, read-out: Cell-based assay IC50, Tyk2
T5 construct: expressed in transfected cells; host or cells: Ba/F3

[7] = tested on: CBMC; assay: CBMC cell viability; assay type: cell-based, human; settings: incubation of CBMC for up to 9 hours
[8] = tested on: murine bone marrow mast cell (BMMC); assay: Transwell migration of BMMC in response to rmSCF; assay type: cell-based; settings: Mus musculus, 4 hours, read-out: inhibition of migration of SCF-stimulated BMMCs relative to the control
Experimental: Migration of murine BMMCs was evaluated using a transwell migration assay [35]. […] Filters were then placed in wells containing 600 µL of chemotaxis buffer supplemented with or without 10 ng/mL of rmSCF, for stimulated or unstimulated BMMCs, respectively. After 4 hours incubation at 37°C in 5% CO2, cells from the bottom chamber were resuspended and counted using a FACS Scan over 20 seconds. All assays were performed in triplicate and counts were repeated twice for each well. For tyrosine kinase inhibitor treatment, 1×10^7 mast cells were pretreated for 1.5 hours at 37°C in complete medium (OPTI MEM, 10% foetal calf serum (FCS), 1% antibiotics and 2-mercaptoethanol 5×10^−5 M, 10 ng/ml rIL3) either with 1 µM of inhibitor or an equivalent volume of DMSO.

[9] = molecular target: recombinant human KIT (Homo sapiens, UniProt P10721)
Chain of recombinant human KIT (P10721 567-976): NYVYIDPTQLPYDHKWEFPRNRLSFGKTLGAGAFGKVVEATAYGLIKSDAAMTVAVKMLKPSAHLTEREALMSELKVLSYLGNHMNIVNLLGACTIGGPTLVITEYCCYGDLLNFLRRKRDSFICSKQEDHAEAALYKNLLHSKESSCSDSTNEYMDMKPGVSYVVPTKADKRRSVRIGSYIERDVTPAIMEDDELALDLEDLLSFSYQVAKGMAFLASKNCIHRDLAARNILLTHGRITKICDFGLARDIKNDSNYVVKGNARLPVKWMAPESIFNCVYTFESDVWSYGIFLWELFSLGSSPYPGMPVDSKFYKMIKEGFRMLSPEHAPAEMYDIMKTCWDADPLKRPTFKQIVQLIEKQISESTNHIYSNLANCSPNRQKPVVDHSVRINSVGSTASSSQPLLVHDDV
Experimental: Tyrosine phosphorylation by KIT was assayed by measuring the incorporation of phosphate into poly(Glu,Tyr 4∶1). […] Recombinant human KIT tyrosine kinase assays were performed using an ELISA-based assay with poly(Glu,Tyr 4∶1) as a substrate.
A 96-well microtitre plate (Immulon 2HB; ThermoLifeScience, Finland) was coated overnight with 0.25 mg/ml poly(Glu,Tyr 4:1), rinsed twice with 250 µl of washing buffer (10 mM phosphate-buffered saline [pH 7.4] and 0.05% Tween 20) and dried for 2 hours at room temperature. […] Reactions were initiated upon introduction of the enzyme and terminated with the addition of one reaction volume (50 μl) of 100 mM EDTA per 5 M urea mix. Plates were washed three times and incubated with 1:30,000 horseradish peroxidase-conjugated anti-phosphotyrosine monoclonal antibody (Sigma-Aldrich, France), then washed three times and incubated with tetramethylbenzidine. The final reaction product was quantified by spectrophotometry at 450 nm.

[10] = tested on: Δ27-expressing Ba/F3 cells; assay: Ba/F3 Δ27 tumour model in nude mice; assay type: in vivo; settings: for average tumour volume increase: days 14 to 25, tumours 40 mm^3, vehicle 1200%; for animals with no detectable tumours at day 25: n = 8 per group
Experimental: Nude mice were gamma-irradiated and implanted after 24 hours with Δ27-expressing Ba/F3 cells by subcutaneous injection.
placebo (vehicle control); or untreated (n = 8 per group). […]
Female MBRI Nu/Nu mice (7 weeks old) (Janvier, France) were housed under specific pathogen-free conditions at 20±1°C with a 12 hours light/12 hours dark cycle and ad libitum access to food and filtered water. The mice were allowed to acclimatise to the study conditions for 10 to 20 days prior to experiments. All animal experiments were performed according to Centre national de la recherche scientifique (CNRS) ethical guidelines of animal experimentation. […] The cells were centrifuged and resuspended at 5×10^6 or 7.5×10^6 cells/ml in phosphate-buffered saline. Mice were treated with 5 Gy of gamma radiation and after 24 hours they were injected in the right flank with 1.5×10^6 Δ27 Ba/F3 cells. […] For all animals, body weight was measured on the day of injection and every 5 days thereafter, with the tumour's size measured via callipers every 5 days during the treatment period for estimation of tumour volume. During the predose period and for 2 weeks post-treatment, the animals were checked for mortality or signs of morbidity once a day, increasing to twice a day checks during the treatment period.
Survival in the in vivo mouse studies was assessed by Kaplan-Meier analysis using GraphPad Prism (GraphPad Software, Inc. USA) with comparison of survival curves performed by the logrank Mantel-Cox test. The appropriate Wilcoxon or Kruskall-Wallis tests were used for group comparison of tumour volumes and BMMC migration.

[11] = tested on: cultured human lymphocytes; assay: Chromosome aberration test in cultured human lymphocytes; assay type: cell-based; settings: our unpublished results
[12] = Solubility; assay type: physicochemical
From the text: The chemical name is 4-(4-methylpiperazin-1-ylmethyl)-N-[4-methyl-3-(4-pyridin-3ylthiazol-2-ylamino) phenyl]benzamide-mesylate methane sulfonic acid salt, and the chemical formula is C28H30N6OS·CH4O3S (Figure 1A). […] Fresh dilutions of masitinib were made for each experiment. The imatinib used in this study was purchased from Sequoia Research (UK).

[13] = molecular target: Fibroblast growth factor receptor 1 (Homo sapiens, UniProt P11362); assay: Ba/F3 cell proliferation (WST-1), FGFR1; set-up: expressed in transfected cells; host or cells: Ba/F3 (general description; not repeated for this kinase); settings: Ba/F3 cells expressing the enzyme, read-out: Cell-based assay IC50, Fibroblast growth factor receptor 1
Chain of Fibroblast growth factor receptor 1 (P11362 22-822): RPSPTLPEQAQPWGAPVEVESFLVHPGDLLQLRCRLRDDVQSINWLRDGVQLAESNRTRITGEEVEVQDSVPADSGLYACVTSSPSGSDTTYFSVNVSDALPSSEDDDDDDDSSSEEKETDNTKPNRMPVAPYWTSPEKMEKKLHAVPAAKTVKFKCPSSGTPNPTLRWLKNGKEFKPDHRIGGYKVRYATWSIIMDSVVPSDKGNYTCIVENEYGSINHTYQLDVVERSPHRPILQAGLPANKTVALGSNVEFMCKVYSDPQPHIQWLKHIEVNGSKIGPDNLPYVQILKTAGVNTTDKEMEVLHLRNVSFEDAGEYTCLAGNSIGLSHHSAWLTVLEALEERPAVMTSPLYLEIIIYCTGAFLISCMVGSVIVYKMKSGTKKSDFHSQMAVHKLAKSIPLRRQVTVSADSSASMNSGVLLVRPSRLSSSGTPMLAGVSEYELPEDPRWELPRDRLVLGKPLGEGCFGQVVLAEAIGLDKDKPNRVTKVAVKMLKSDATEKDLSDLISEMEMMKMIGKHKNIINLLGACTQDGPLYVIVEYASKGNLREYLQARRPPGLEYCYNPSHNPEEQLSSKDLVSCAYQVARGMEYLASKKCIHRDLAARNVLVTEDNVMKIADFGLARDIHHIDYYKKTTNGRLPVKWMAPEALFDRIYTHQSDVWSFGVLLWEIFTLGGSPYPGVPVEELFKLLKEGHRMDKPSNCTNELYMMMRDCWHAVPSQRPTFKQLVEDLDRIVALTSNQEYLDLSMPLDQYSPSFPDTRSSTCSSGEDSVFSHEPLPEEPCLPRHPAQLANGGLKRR

## CS(=O)(=O)O.CS(=O)(=O)O.Cc1ccc(NC(=O)c2ccc(CN3CCN(C)CC3)cc2)cc1Nc1nc(-c2cccnc2)cs1 [masitinib, 4-(4-methylpiperazin-1-ylmethyl)-N-[4-methyl-3-(4-pyridin-3ylthiazol-2-ylamino)phenyl]benzamide-mesylate methane sulfonic acid salt]
[1]
  IC50: 1.87 ± 0.31 µM
[2]
  IC50: > 10 µM
[3]
  IC50: 3 ± 0.1 µM
[4]
  IC50: 5 ± 2 µM
[5]
  IC50: 9 ± 0.18 µM
[6]
  IC50: 9 ± 0.8 µM
[7]
  effect on cell viability: no affect on cell viability
[8]
  inhibition at 1 µM: ~79.6%
[9]; concentrations ≤500 nM
  mechanism of inhibition against ATP: competitive inhibitor against ATP
[9]; higher concentrations (>1 µM)
  mechanism of inhibition against ATP: mixed mechanism of inhibition against ATP
[10]; 30 mg/kg intraperitoneal twice daily for 25 days
  effect on total body weight: did not affect the total body weight
[10]; 30 mg/kg intraperitoneal twice daily for 25 days, tumours 400 mm^3
  tumour growth: Tumour growth stabilised
[10]; 30 mg/kg intraperitoneal twice daily for 25 days, tumours 400 mm^3, control 30.5 days
  median survival time: 42 days
[10]; 30 mg/kg intraperitoneal twice daily, after 10 days of treatment (day 29)
  average tumour volume, placebo group compared to masitinib treated group: ~4 fold
[10]; 30 mg/kg oral twice daily
  average tumour volume increase: 355%
  animals with no detectable tumours at day 25: one
[10]; 45 mg/kg oral twice daily
  average tumour volume increase: 154%
  animals with no detectable tumours at day 25: two
[10]; 100 mg/kg oral twice daily, 5 days, tumours 500 mm^3 (data not shown)
  tumour growth: tumour growth was blocked
[10]; 10, 30, or 45 mg/kg oral twice daily
  effect on body weight gain: did not affect body weight gain
[11]
  chromosome aberrations: does not cause chromosome aberrations
[12]; 0.1 M HCl
  solubility: freely soluble
[12]; 0.1 M NaOH
  solubility: practically insoluble
[12]; dimethylsulfoxide
  solubility: freely soluble
[12]; ethanol
  solubility: slightly soluble
[12]; n-hexane
  solubility: practically insoluble
[12]; propylene glycol
  solubility: slightly soluble
[12]; water
  solubility: soluble
[13]
  IC50: 7 ± 1.9 µM

— publication PMC2746281 (PLoS ONE, 2009)
